Test [1] deals with phosphorylated FGFR3 (Homo sapiens (Human), UniProt P22607). The test is described as follows: FGFR Enzyme Binding Assay (HTRF tracer displacement), FGFR3. The following applies: 5 nM phosphorylated FGFR3, 60 minute incubation at 22° C.; read-out: FGFR3 Enz Binding IC50. The protocol: The potency of compounds inhibiting human isoforms of FGFR kinase was determined using Life Technologies' Homogeneous Time Resolved Fluorescence (HTRF)-based binding assay technology. An incubation was conducted with either 5 nM dephosphorylated FGFR1 (Array Biopharma, p1702; SEQ ID NO: 1, amino acids 458 to 765, dephosphorylated by co-expression with PTP1b (protein tyrosine phosphatase 1B)), 5 nM dephosphorylated FGFR2 (Life Technologies, Cat. No. PV4106 that had been dephosphorylated with Lambda protein phosphatase (New England Biolabs, cat #P0753)) or 5 nM phosphorylated FGFR3 (Array Biopharma, p1836; SEQ ID NO: 5, amino acids 449 to 759), 50 nM Kinase Tracer 236 (Life Technologies Cat. No. PR9078A), 2 nM Biotin-anti-6HIS (Life Technologies Cat. No. PV6090) and 2 nM Europium-Streptavidin (Life Technologies Cat. No. PV6025) along with test compound in a buffer consisting of 50 mM HEPES ((4-(2-hydroxyethyl)-1-piperazineethanesulfonic acid, pH 7.5), 5 mM MgCl2, 0.005% Triton X-100, 1 mM DTT, 1 mM NaVO4 and 2% DMSO in a final volume of 12 μL Compounds were typically prepared as a 3-fold or 4-fold serial dilution in DMSO and added to the assay to give the appropriate final concentration. After a 60 minute incubation at 22° C., the extent of tracer displacement was determined using a PerkinElmer EnVision multimode plate reader via HTRF dual wavelength detection, and the percent of control (POC) was calculated using a ratiometric emission factor. One hundred POC was determined using no test compound, and 0 POC was determined in the presence of 1 μM of an appropriate control inhibitor. A 4-parameter logistic curve was fit to the POC values as a function of the concentration of compound, and the IC50 value was the point where the best-fit curve crossed 50 POC.
Background: In TR-FRET formats the signal depends on donor and acceptor labels being close together.

The target in test [2] is FGFR1 (Homo sapiens (Human), UniProt P11362). The test is described as follows: LC/MS FGFR1 kobs assay (covalent modification). It counts as biochemical. The following applies: 500 nM FGFR1, 3 μM compound. As for the experimental part:
(§1) The LC/MS FGFR1 and FGFR3 kobs assays were conducted as follows. 500 nM FGFR1 (Array BioPharma construct p1702; SEQ ID NO: 1, amino acids 458-765) or FGFR3 (Array BioPharma construct p1700; SEQ ID NO: 5, amino acids 449-759) were incubated with 3 μM compound in 25 mM HEPES (4-(2-hydroxyethyl)-1-piperazineethanesulfonic acid), pH 7.4, 5 mM MgCl2, 150 mM NaCl, 0.5 mM TCEP (tris(2-carboxyethyl) phosphine), and 2% DMSO in a total volume of 20 μL. At each time point, the reaction was quenched with 20 μL of 0.4% formic acid. The extent of protein modification by each compound was determined by LC/MS on an Agilent Technologies 6520 Q-TOF LC/MS. Protein signals were then automatically deconvoluted using Agilent Masshunter software. Deconvoluted mass signals were exported to Tibco Spotfire data analysis program for further processing and normalization.
(§2) Data analysis included five steps. First, the signals for the “DMSO Controls” were analyzed to determine the percent of signal associated with unmodified FGFR1 or FGFR3 at each time point. Next, the percent of the signal associated with the covalent modification was determined. Third, the average nonmodified “DMSO Control” signal was used to normalize the modified protein signals at each time point. The percent of unmodified protein was fit to an exponential decay model where A0 is the Percent Unmodified at the start of the reaction, and kobs is the observed rate constant over the time period.

For test [3], the target named is human wild type FGFR1 (Homo sapiens (Human), UniProt P11362). Kind of test: FGFR1 pERK Cell Assay. The class given is cell-based. The following applies: HEK-293 cells, 1 hour compound, 100 ng/ml human FGF-acidic; maximum concentration 5 μM. As for the experimental part: HEK-293 cells transfected with doxycycline(dox)-inducible human wild type FGFR1 (SEQ ID NO: 1) were plated in a collagen or poly-D-lysine coated 96 well flat bottom plates at 4×10^5 cells/well in complete Dulbecco's Modified Eagle Medium (DMEM) containing 10% FBS and 1 μg/ml doxycycline and allowed to attach for 24 h at 37° C., 5% CO2. Cells were treated with compound using 1:3 serial dilutions with a maximum final concentration of 5 μM. Compound was incubated on cells for 1 hour at 37° C., 5% CO2. Cells were then stimulated with a final concentration of 100 ng/ml human FGF-acidic (R&D Systems Cat number 232-FA/CF) for 5 minutes at 37° C., 5% CO2. Medium was removed, and cells were lysed with lysis buffer containing phosphatase and protease inhibitors. Phospho ERK1/2 was measured using the Meso Scale Discovery sandwich assay (Meso Scale Discovery cat. no. K151DWD). The assay captures phospho ERK1/2 and detects with a sulfo-tagged total ERK1/2 antibody. The chemiluminescent signal was read on the Sector Imager Plate reader. 100 POC was determined using no test compound and 0 POC was determined using a control compound. The POC values were fit to a 4-parameter logistic curve as a function of the concentration of the compound, and the IC50 value is the point where the curve crosses 50 POC.

In test [4] the target is T1, FGFR3 (Homo sapiens (Human), UniProt P22607). The test is described as follows: FGFR Enzyme Activity Assay (LanthaScreen TR-FRET), FGFR3. It counts as biochemical. Particulars: 25 μM ATP, 10 minute incubation; read-out: FGFR3 Enz FRET IC50. The protocol:
FGFR3 kinase activity was measured by the Invitrogen LanthaScreen™ Assay technology which directly measures the amount of substrate phosphorylation by TR-FRET using a flourescently-labeled peptide and Europium-labeled antibody. Briefly, 750 pM N-terminal GST-HIS6 fusion protein with a 3C cleavage site recombinant human FGFR3 (amino acids R397-T806) (ProQinase Cat. No. 1068-0000-1) was incubated with 100 nM Alexa Fluor® 647-Poly-GT Peptide Substrate (Life Technologies Cat. No. PV5836) and 25 μM ATP along with test compound in a buffer consisting of 250 mM HEPES, 25 mM MgCl2, 0.05% TritonX-100, pH 7.5, and 2% DMSO. Compounds were typically prepared in a threefold serial dilution in DMSO and added to the assay to give the appropriate final concentration. After a 10 minute incubation at 22° C., an equal volume of 2 nM LanthaScreen® Eu-PY20 Antibody (Life Technologies Cat. No. PV5691) and 10 mM EDTA were added to quench the kinase reaction and start the detection reaction. After an additional 60 minute incubation at 22° C., the reaction was measured using a PerkinElmer EnVision multimode plate reader via TR-FRET dual wavelength detection, and the percent of control (POC) calculated using a ratiometric emission factor. 100 POC was determined using no test compounds and 0 POC was determined using no enzyme. The POC values were fit to a 4-parameter logistic curve as a function of the concentration of the compound, and the IC50 value is the point where the curve crosses 50 POC.
Target sequence in this assay (P22607 397-806): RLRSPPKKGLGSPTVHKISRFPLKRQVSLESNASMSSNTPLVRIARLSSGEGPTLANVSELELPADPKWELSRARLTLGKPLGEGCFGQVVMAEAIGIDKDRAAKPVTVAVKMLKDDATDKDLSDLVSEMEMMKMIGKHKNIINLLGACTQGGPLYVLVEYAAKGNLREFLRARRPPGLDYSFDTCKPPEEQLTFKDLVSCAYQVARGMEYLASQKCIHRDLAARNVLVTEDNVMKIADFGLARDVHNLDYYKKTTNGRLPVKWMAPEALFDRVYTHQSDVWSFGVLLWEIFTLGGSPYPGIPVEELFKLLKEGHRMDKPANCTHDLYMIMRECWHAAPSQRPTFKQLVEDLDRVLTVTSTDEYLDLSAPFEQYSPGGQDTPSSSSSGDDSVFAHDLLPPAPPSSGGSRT

Test [5] deals with T1, FGFR3. The test is described as follows: LC/MS FGFR3 kobs assay (covalent modification). It counts as biochemical. Particulars: 500 nM FGFR3, 3 μM compound. As for the experimental part: as §1, §2
Target sequence in this assay (P22607 449-759): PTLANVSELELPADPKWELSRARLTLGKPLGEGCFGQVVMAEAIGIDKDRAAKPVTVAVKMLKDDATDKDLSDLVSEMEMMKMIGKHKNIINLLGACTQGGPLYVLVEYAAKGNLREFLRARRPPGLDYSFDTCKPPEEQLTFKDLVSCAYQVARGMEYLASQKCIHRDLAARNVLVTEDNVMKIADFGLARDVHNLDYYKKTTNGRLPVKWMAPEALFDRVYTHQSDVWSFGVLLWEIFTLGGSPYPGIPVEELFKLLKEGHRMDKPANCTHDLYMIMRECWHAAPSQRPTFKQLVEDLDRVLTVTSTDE

Structures are written as SMILES.

The term IC50 denotes the concentration at which inhibition is half-maximal.

Chain of human wild type FGFR1 (P11362 22-822): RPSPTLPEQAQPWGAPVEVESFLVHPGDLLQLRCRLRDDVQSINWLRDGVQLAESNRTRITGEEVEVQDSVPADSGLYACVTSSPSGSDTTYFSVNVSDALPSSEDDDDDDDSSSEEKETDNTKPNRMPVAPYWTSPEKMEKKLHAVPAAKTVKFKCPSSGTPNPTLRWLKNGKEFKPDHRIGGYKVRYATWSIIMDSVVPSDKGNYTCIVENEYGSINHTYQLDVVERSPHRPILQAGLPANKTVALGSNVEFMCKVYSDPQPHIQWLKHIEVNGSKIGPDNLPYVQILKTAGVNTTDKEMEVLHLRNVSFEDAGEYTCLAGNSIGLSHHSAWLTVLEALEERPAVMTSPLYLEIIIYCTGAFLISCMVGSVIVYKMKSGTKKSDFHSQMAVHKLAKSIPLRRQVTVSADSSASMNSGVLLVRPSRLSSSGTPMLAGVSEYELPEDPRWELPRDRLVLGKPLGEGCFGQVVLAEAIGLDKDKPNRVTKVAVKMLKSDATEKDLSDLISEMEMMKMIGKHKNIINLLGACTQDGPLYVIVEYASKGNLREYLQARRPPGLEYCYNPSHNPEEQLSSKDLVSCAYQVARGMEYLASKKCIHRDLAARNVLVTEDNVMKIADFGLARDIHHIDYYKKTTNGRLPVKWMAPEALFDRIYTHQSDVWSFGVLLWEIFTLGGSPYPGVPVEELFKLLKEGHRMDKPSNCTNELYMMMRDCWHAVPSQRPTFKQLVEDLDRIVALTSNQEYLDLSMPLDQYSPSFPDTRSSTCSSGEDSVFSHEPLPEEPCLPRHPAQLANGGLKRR
Chain of phosphorylated FGFR3 (P22607 449-759): as the sequence (P22607 449-759) above
Chain of FGFR1 (P11362 458-765): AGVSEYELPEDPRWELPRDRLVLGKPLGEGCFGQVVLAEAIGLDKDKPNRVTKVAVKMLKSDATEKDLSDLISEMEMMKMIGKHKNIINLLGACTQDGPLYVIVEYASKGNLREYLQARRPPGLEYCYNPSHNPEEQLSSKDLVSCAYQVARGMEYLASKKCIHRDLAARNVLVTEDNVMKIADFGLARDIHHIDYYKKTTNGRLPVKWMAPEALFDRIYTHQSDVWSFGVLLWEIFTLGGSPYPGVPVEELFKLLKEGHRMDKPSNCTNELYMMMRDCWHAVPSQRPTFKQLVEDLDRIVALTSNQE

Consider `C=CC(=O)N1CC(C(=O)N2CCC(n3cc(-c4cnc5ccc(Nc6cc(OC)cc(OC)c6)cc5n4)cn3)CC2)C1` [Example 1, 1-(3-(4-(4-(7-((3,5-dimethoxyphenyl)amino)quinoxalin-2-yl)-1H-pyrazol-1-yl)piperidine-1-carbonyl)azetidin-1-yl)prop-2-en-1-one], for which the IC50 in test [1] came to 2 nM; in test [3] it was 507 nM; in test [4], 9 nM. Besides, the “FGFR1 Enz kobs” value in test [2] is 0.00127 min⁻¹. Also, the “FGFR3 Enz kobs” value in test [5] came out at 0.00945 min⁻¹.
The like results for `C=CC(=O)N1CC(F)(C(=O)N2CCN(c3ccc(-c4cnc5ccc(Nc6cc(OC)cc(OC)c6)cc5n4)cn3)CC2)C1` [Example 8, 1-(3-(4-(5-(7-((3,5-dimethoxyphenyl)amino)-quinoxalin-2-yl)pyridin-2-yl)piperazine-1-carbonyl)-3-fluoroazetidin-1-yl)-prop-2-en-1-one] were, in that order, 30 nM, 1140 nM, 631 nM, 0.00384 min⁻¹ and 0.06319 min⁻¹.
The like results for `COc1cc(Nc2ccc3ncc(-c4cnn(C5CCN(C(=O)C6CN(C(=O)/C=C/CN(C)C)C6)CC5)c4)nc3c2)cc(OC)c1` [Example 9, (E)-1-(3-(4-(4-(7-((3,5-dimethoxyphenyl)amino)-quinoxalin-2-yl)-1H-pyrazol-1-yl)piperidine-1-carbonyl)azetidin-1-yl)-4-(dimethylamino)but-2-en-1-one] were, in that order, 2 nM, 2230 nM, 23 nM, 0.00278 min⁻¹ and 0.02139 min⁻¹.
The like results for `COc1cc(Nc2ccc3ncc(-c4cn(C5CCN(C(=O)C6(F)CN(C(=O)/C=C/CN(C)C)C6)CC5)nc4C)nc3c2)cc(OC)c1` [Example 22, (E)-1-(3-(4-(4-(7-((3,5-dimethoxyphenyl)amino)-quinoxalin-2-yl)-3-methyl-1H-pyrazol-1-yl)-piperidine-1-carbonyl)-3-fluoroazetidin-1-yl)-4-(dimethylamino)but-2-en-1-one] were, in that order, 4 nM, 898 nM, 79 nM, 0.00673 min⁻¹ and 0.05725 min⁻¹.
As for `C=CC(=O)N1CC(F)(C(=O)N2CCN(c3cc(C)c(-c4cnc5ccc(Nc6cc(OC)cc(OC)c6)cc5n4)cn3)CC2)C1` [Example 15, 1-(3-(4-(5-(7-((3,5-dimethoxyphenyl)amino)-quinoxalin-2-yl)-4-methylpyridin-2-yl)-piperazine-1-carbonyl)-3-fluoroazetidin-1-yl)prop-2-en-1-one], the IC50 in test [1] was 116 nM; in test [3], ≥ 5000 nM; in test [4], 5000 nM. For the same compound, the “FGFR1 Enz kobs” value in test [2] worked out at 0.00154 min⁻¹. The “FGFR3 Enz kobs” value in test [5] is 0.0172 min⁻¹.
The like results for `COc1cc(Nc2ccc3ncc(-c4cnn([C@@H]5CCN(C(=O)C6(F)CN(C(=O)/C=C/CN(C)C)C6)C5)c4)nc3c2)cc(OC)c1` [Example 19, (R,E)-1-(3-(3-(4-(7-((3,5-dimethoxyphenyl)amino)-quinoxalin-2-yl)-1H-pyrazol-1-yl)pyrrolidine-1-carbonyl)-3-fluoro-azetidin-1-yl)-4-(dimethyl-amino)but-2-en-1-one] were, in that order, 4 nM, 1280 nM, 50 nM, 0.00339 min⁻¹ and 0.03902 min⁻¹.
Take `C=CC(=O)N1CC(C(=O)N2CCC(n3ncc(-c4cnc5ccc(Nc6cc(OC)cc(OC)c6)cc5n4)c3C)CC2)C1` [Example 18, 1-(3-(4-(4-(7-((3,5-dimethoxyphenyl)amino)-quinoxalin-2-yl)-5-methyl-1H-pyrazol-1-yl)piperi-dine-1-carbonyl)azetidin-1-yl)prop-2-en-1-one]: the IC50 in test [1] came out at 18 nM; in test [3], 3660 nM; in test [4], 373 nM. Besides, the “FGFR1 Enz kobs” value in test [2] was 0.00096 min⁻¹. Moreover, in test [5], the “FGFR3 Enz kobs” value worked out at 0.01462 min⁻¹.
In the same order, the values of `COc1cc(Nc2ccc3ncc(-c4cnn(C5CCN(C(=O)C6(F)CN(C(=O)/C=C/CN(C)C)C6)CC5)c4C)nc3c2)cc(OC)c1` [Example 17, (E)-1-(3-(4-(4-(7-((3,5-dimethoxyphenyl)amino)-quinoxalin-2-yl)-5-methyl-1H-pyrazol-1-yl)piperi-dine-1-carbonyl)-3-fluoroazetidin-1-yl)-4-(dimethylamino)but-2-en-1-one] are 5 nM, 423 nM, 48 nM, 0.00842 min⁻¹ and 0.08024 min⁻¹.
In the same order, the values of `C=CC(=O)N1CC(CN2CCC(n3cc(-c4cnc5ccc(Nc6cc(OC)cc(OC)c6)cc5n4)cn3)CC2)(OC)C1` [Example 29, 1-(3-((4-(4-(7-((3,5-dimethoxyphenyl)amino)quinoxalin-2-yl)-1H-pyrazol-1-yl)piperidin-1-yl)methyl)-3-methoxyazetidin-1-yl)prop-2-en-1-one] are 3 nM, 206 nM, 40 nM, 0.0025 min⁻¹ and 0.01671 min⁻¹.
